# A melting point compilation (Tetko et al.; mined from patent text by program, amines drawn as free bases though some values may be those of a salt)
row,Structure (SMILES),melting point
1,S=C1Nc2ccccc2N2CCc3cccc1c32,185 to 186 °C
2,Cc1nc(-c2ccc(Cn3sccc3=O)cc2)cs1,150 to 152 °C
3,O=C(O)CCC1CC(c2ccccc2)CCC1O (stereo not given),154 to 155 °C
4,COc1ccc2c(c1)C(=O)C(=Cc1c[nH]c3ccccc13)CO2,217 to 219 °C
5,CN(CCN1CCOCC1)Cc1ccc(COc2cccc3c2CN(C2CCC(=O)NC2=O)C3=O)cc1 (stereo not given),193 to 195 °C
6,COc1cnc(CS(C)(=O)=O)nc1O,230 °C
7,COc1ccccc1NC(=O)Nc1nc(NC(CC(=O)O)c2ccccc2)nc(Oc2ccc3ccccc3c2)n1 (stereo not given),149 °C
8,CC1CCC2(C(=O)O)CCC3(C)C(=CCC4C5(C)CC(O)C(O)C(C)(CO)C5CCC43C)C2C1C (stereo not given),300 to 310 °C
9,CC(=O)N[C@@H](CSC(C)=O)C(=O)NCCSC(=O)c1ccccc1,166 to 168 °C
10,c1ccc(NCC2Oc3ccccc3O2)cc1,70 to 72 °C
11,Cc1ccc(S(=O)(=O)O[C@@H]2CCCN(S(=O)(=O)c3ccc(C)cc3)C2)cc1,140 to 147 °C
12,COc1cc(O)c([N+](=O)[O-])c2ccccc12,128 to 130 °C
13,CS(=O)(=O)Nc1ccc(OCCN2CCN(C(=O)c3ccc(NS(C)(=O)=O)cc3)CC2)cc1,170 to 175 °C
14,Nc1cccc(S(F)(F)(F)(F)F)c1,32 to 35 °C
15,CNC(=O)C(C(=O)NC(Cc1ccccc1)C(O)CNCC(O)C(Cc1ccccc1)NC(=O)OC(C)(C)C)C(C)(C)C (stereo not given),117 to 120 °C
16,Cn1cncc1C(O)(c1ccc(Cl)nc1)c1ccc2noc(-c3cccc(Cl)c3)c2c1 (stereo not given),230 °C
17,CC(C)Cn1c(CN2C(=O)c3ccccc3C2=O)c(-c2ccc(F)cc2)c2cc(OCc3ccccc3)ccc2c1=O,198 to 199 °C
18,COC(=O)CCS(=O)c1cc(C(C)(C)C)c(O)c(C(C)(C)C)c1 (stereo not given),106 to 108 °C
19,CC1Cc2cc(OCc3ccccc3)c(O)cc2C(=O)C1C (stereo not given),90 to 93 °C
20,COC(=O)C1Cc2ccccc2NC1=O (stereo not given),165 to 168 °C
21,NS(=O)(=O)c1cc(Cl)cc(Cl)c1O,> 225 °C
22,CSc1nnc(-c2ccccc2)n1C,134 to 135 °C
23,OC1CCNC(Cc2ccccc2)C1 (stereo not given),114 °C
24,OCc1cc2cccc3cc(-c4ccc(O)cc4)c1n23,185 to 190 °C
25,CCOC(=O)C1C(=O)C=C(OCC)CC1c1ccc(C)cc1 (stereo not given),75 to 77 °C
26,O=S1(=O)N=CN(C2CC2)c2ccc(F)c(Cl)c21,260 to 263 °C
27,Cc1cccc(N2CCN(C(=O)OC(C)(C)C)CC2)c1[N+](=O)[O-],101 to 102 °C
28,CCOC(=O)c1ccc(NC(=O)CCn2cnc3c(=O)[nH]cnc32)cc1,265 to 269 °C
29,CC(C)(C)c1ccc(Nc2ncc(-c3ccc4ncncc4c3)c3ccccc23)cc1,213 to 214 °C

# The remaining lines, values ahead:
row,melting point,Structure (SMILES)
1,319 to 321 °C,CC(C)c1nc2c([nH]1)c(=O)[nH]c(=O)n2Cc1cccc(Cl)c1
2,134 to 135 °C,CCn1nc2c(N)nc(C)cc2c1CC(C)(C)O
3,165 to 166 °C,CCc1cccc(C)c1CNc1cc(OC)nc2c1nc(C)n2C
4,208 to 209 °C,CCNC(=NC#N)Nc1ccc(C2=NNC(=O)CC2C)cc1 (stereo not given)
5,167 to 169 °C,Nc1nc(SC2CCCC2)c2ncn(C3C=CC(CO)C3)c2n1 (stereo not given)
6,152 to 153 °C,CC(CC(F)(F)CC(Cl)(CO)CO)C1CCC2C3CC=C4CC(O)CCC4(C)C3CCC12C (stereo not given)
7,211 to 213 °C,COc1nc(C)c(N2CCCn3c2nc2c(Br)ccc(C(OC(F)F)C(F)(F)F)c23)c(C)n1 (stereo not given)
8,184 to 186 °C,OC1CSC(Oc2ccc(-c3ccc(OC(F)(F)F)cc3)nc2)C(O)C1O (stereo not given)
9,220 to 230 °C,Cn1ccnc1Sc1ccc(Nc2c(C#N)cnc3cc(N4CCC(N5CCCC5)CC4)c([N+](=O)[O-])cc23)cc1Cl
10,> 250 °C,COc1cc(NC(=O)C(C#N)=CNc2ccc(Br)c(OC)c2)c(Cl)cc1Cl
11,145 °C,COc1ccc(C(=O)C2CCC(C)(C(=O)O)C2(C)C)c(OC)c1 (stereo not given)
12,90 to 95 °C,COC(=O)C(NS(=O)(=O)c1ccc(-c2ccc(NC(=O)c3oc4cccc(C(O)CO)c4c3C)cc2)cc1)C(C)C (stereo not given)
13,195 to 198 °C,CC1(C)CCC(C)(C)c2cc(COc3ccc(C(=O)O)cc3-c3ccccc3)ccc21
14,132 °C,CC(C)[Si](Oc1ccc2c(c1)OCC(N1CCC(O)(c3ccccc3)CC1)C2=O)(C(C)C)C(C)C (stereo not given)
15,36 to 36.7 °C,C=C(C)C(=O)OCc1ccc(OC2CCCCO2)cc1 (stereo not given)
16,86 to 88 °C,Cc1nc(N2CCc3ccccc3CC2)c(C#N)c(=O)n1N(CC(F)(F)F)C(=O)OC(C)(C)C
17,217 to 221 °C,COc1cccc2c1C(=O)c1c(O)c3c(c(O)c1C2=O)CC(O)(C(C)=O)CC3O (stereo not given)
18,175 °C,Nc1ncnc2c1nc(NCCP(=O)(O)O)n2C1OC(CO)C(O)C1O (stereo not given)
19,232 to 237 °C,O=C(O)c1cn(C2CC2)c2c(F)c(N3CCC(N=Cc4ccc(Cl)cc4)C3)c(F)cc2c1=O (stereo not given)
20,221 °C,CCOC(=O)c1cn(C)c2nc3cc(N4CCN[C@@H](c5ccccc5)C4)c(F)cc3cc2c1=O
21,172 to 173 °C,CC#CCOc1ccc(SC(C(=O)NO)c2ccccc2OC)cc1 (stereo not given)

row,melting point,Structure (SMILES)
1,143 to 144 °C,CCOC(=O)c1c(NCC(=O)c2ccccc2)c2c(Cl)cc(Cl)cc2n1C(=O)OC(C)(C)C
2,101 to 104 °C,CC(C)C1(C)NC(c2ccc(CO)cn2)=NC1=O (stereo not given)
3,72 to 74 °C,CCCc1c(OCCCSCCO)ccc(C(C)=O)c1O
4,60 to 65 °C,CC(C)Cc1nn(C)c(=O)c2c(SCCCO)c(Cc3ccccc3)sc12
5,132 to 134 °C,COC(=O)CN(C)CCNC(=O)c1nc(Cl)c(N)nc1N
6,108 to 111 °C,Cc1ccc(NC(=O)NCCN2CCN=C2c2ccccc2Cl)cc1
7,56 to 59 °C,CC(=O)OCC(C)(C)C(=O)O
8,208 to 209 °C,CC(=O)NC[C@H]1CN(c2ccc(N3CCN(C(=O)CCC(=O)c4ccc(Cl)cc4)CC3)c(F)c2)C(=O)O1
9,110 °C,COc1ccc2ccc(N3C(=O)c4ccccc4C3CC(O)CCC(C)C)nc2n1 (stereo not given)
10,148 to 150 °C,COC(=O)Cc1ccccc1NC(=S)N(C)NC(=O)c1ccccc1
11,140 °C,CN(C)CCCCC(=O)NC(Cc1c[nH]c2ccccc12)C(=O)CCc1cc(C(F)(F)F)cc(C(F)(F)F)c1 (stereo not given)
12,129 to 131 °C,COc1cc(Cc2nc(NCC(C)C)c3c(C)c(C#N)sc3n2)cc(OC)c1OC
13,161 to 165 °C,O=C(Nc1ccc(-n2nc(C(F)(F)F)cc2C2CC2)c(F)c1)c1ccncc1F
14,116 °C,CC(=O)OCC1OC(F)C(N2C(=O)c3ccccc3C2=O)C(OC(C)=O)C1OC(C)=O (stereo not given)
15,209 to 210 °C,COC(=O)c1ccc(CCc2nc(NC(C)=O)sc2Cc2ccc(S(C)(=O)=O)cc2)cc1
16,218 to 221 °C,CCN1N=C(c2ccc(F)cc2)c2cc(Cl)c(Cl)cc2CS1(=O)=O
17,48 to 49 °C,COC(=O)c1sc(S)c(Cl)c1O
18,73.5 to 74.5 °C,Cc1nc(C)c(C(=O)c2ccoc2)o1
19,192 to 193 °C,CC(C)Cc1c(C(=O)O)c(C(F)F)nc(C(F)(F)F)c1C(C#N)=C1CCCO1
20,198 °C,O=C1Nc2cccnc2N(CC#CCN2CCCCC2)c2ccccc21
